In patent US9708305B2, “Substituted 1,2,3,4-tetrahydroisoquinoline derivatives for the treatment of hormone-dependent diseases” (UNIVERSITÉ LAVAL, priority 2013, dated 2017):

Experiments:
[1] = test system: T-47D cells; experiment: T-47D cell proliferation in presence of E2 (antiestrogenicity); format: cell-based
Procedure: (§1) CellTitter 96® Aqueous One Solution Cell Proliferation Assay was used as an indirect colorimetric measurement of cell proliferation according to the manufacturer's instructions. Briefly, after the treatments, 20 μL of MTS solution was added to each well (100 μL) of the plates and incubated at 37° C. for 2 h (Saos-2) or 4 h (T-47D). The absorbance at 490 nm was then measured with a Thermo max microplate reader (Molecular Devices, Sunnyvale, Calif.). The control (culture media+DMSO) is set to 100% of cell proliferation.
The cells were plated in 96-well plates at a density of 3 000 cells/well and allowed to attach for 48 h. After this pre-incubation, the inhibitors and the reference compounds diluted in fresh culture media were added to the wells and replaced every 2 days for 7 days of treatment.

[2] = target: T1, steroid sulfatase (STS) (Homo sapiens, UniProt P08842); experiment: Steroid sulfatase (STS) inhibition, [3H]-E1S to [3H]-E1, homogenate of transfected HEK-293 cells; format: biochemical; details: transformation of E1S into E1 in homogenate of HEK-293 cells transfected with STS; read-out: Steroid Sulfatase Inhibition IC50
T1 construct: expressed in transfected cells; host or cells: HEK-293 cells stably transfected with STS (G418 selection), obtained from Dr. Van Luu-The; used as freeze-thaw homogenate
T1 sequence (P08842 22-583): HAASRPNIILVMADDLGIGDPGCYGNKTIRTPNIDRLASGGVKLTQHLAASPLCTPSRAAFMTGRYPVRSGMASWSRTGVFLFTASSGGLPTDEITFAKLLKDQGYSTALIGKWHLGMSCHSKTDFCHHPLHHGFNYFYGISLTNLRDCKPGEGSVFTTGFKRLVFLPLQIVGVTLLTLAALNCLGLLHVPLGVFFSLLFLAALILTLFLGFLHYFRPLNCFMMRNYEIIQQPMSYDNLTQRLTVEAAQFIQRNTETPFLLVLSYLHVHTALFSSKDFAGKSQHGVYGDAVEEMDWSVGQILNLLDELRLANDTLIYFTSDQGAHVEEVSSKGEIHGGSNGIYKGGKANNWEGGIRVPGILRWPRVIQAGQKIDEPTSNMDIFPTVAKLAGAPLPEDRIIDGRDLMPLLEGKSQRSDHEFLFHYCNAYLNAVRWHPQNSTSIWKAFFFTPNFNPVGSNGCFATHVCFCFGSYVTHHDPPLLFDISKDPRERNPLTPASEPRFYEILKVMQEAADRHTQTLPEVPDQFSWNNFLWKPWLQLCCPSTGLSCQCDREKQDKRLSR
Procedure: To test STS inhibition, we used homogenated HEK-293 cells overexpressing STS and evaluated the capacity of our compounds to inhibit the conversion of [^3H]-E1S into [^3H]-E1. […] This is outlined in FIG. 5.
An enzymatic assay previously described was used for the inhibition of the transformation of estrone sulfate (E1S) to estrone (E1) by STS.^72 Briefly, the transfected HEK-293 cells were homogenized by repeated (5 times) cycles of freezing (−80° C.) and thawing on ice (4° C.). The homogenates were then incubated for 2 h at 37° C. (shaking water bath) with or without inhibitors (0.01 μM-1 μM) in presence of [^3H]-E1S (9 nM), adjusted to 1 μM with E1S, in a Tris-acetate buffer (pH 7.4) containing 5 mM EDTA and 10% glycerol. After the incubation, 1 mL of xylene was added to each tube and the solutions were then centrifuged at 3000 rpm for 20 min to separate the organic ([^3H]-E1) and aqueous ([^3H]-E1S) phases. Once 500 μL of each phase was added to 10 mL of Biodegradable Counting Scintillant, the radioactivity of samples was recorded using a Wallac 1411 Liquid Scintillation Counter. The percentage of inhibition was determined by comparison with the control (buffer+homogenate+[^3H]-E1S) which was set to 0% of inhibition. IC50 value was obtained using GraphPad Prism 5 (GraphPad Software, La Jolla, Calif.).

[3] = test system: Saos-2 (ER+) cells; experiment: Proliferative activity on Saos-2 (ER+) cells, phenol library; format: cell-based; details: 1 μM (stated for reference compounds); 7 days; control 100%
Procedure: Estrogens are known to have a beneficial effect on bones. […] The phenol derivatives 3′-EO-09 to 3′-EO-11 and 3′-EO-14 to 3′-EO-17 were tested on the osteoblast-like cell line Saos-2 to further evaluate their SERM capacity (FIG. 13A).
The osteoblast-like Saos-2 cells were maintained in culture flasks (175 cm^2 growth area, BD Falcon) at 37° C. in a 5% CO2 humidified atmosphere and grown in McCoy's 5A medium supplemented with 10% fetal bovine serum (FBS), penicillin (100 IU/mL) and streptomycin (100 μg/mL). Penicillin/streptomycin mix, L-Glutamine, normal and charcoal-stripped FBS were purchased from Wisent, Inc. (St-Bruno, QC, Canada), phenol-red free McCoy's 5A was purchased from PromoCell (Heidelberg, Germany). Chemicals tested were first dissolved in DMSO and subsequent dilutions were done in the cell culture medium. The final concentration of DMSO in the culture medium was 0.1% or less. For the proliferation assay, the […] FBS in the culture medium was replaced with 10% charcoal-stripped FBS. The cells were seeded in 96-well plates at a density of 10 000 cells/well and allowed to attach 24 h. After 24 h, the phenolic compounds diluted in culture medium were added to the wells and replaced every 2 days for 7 days of treatment. As reported above, MTS was used as an indirect colorimetric measurement of cell proliferation according to the manufacturer's instructions, except the plate were incubated 2 h instead of 4 h.

[4] = test system: osteoblast-like Saos-2 cells; experiment: Saos-2 cell proliferation, MTS; format: cell-based; details: for Bone cells Saos-2 (ER+) SERM effect Proliferative activity (%): in percentage of control (100%; 0.1 nM of estradiol)
Text: First, we wanted to evaluate their effect on cell proliferation. […] This is outlined in FIG. 8A. […] One of the main roles of osteoblasts in bone tissue is to construct a calcified extracellular matrix.^15 As such, bone formation is not principally due to osteoblasts proliferation but rather osteoblasts maturation into mature osteocytes. […] This is outlined in FIG. 8B.
as §1
Saos-2 cells were suspended in phenol-red free McCoy's 5A medium supplemented with 10% charcoal-stripped FBS, penicillin (100 IU/mL) and streptomycin (100 μg/mL). The cells were seeded in 96-well plates at a density of 3 000 cells/well and allowed to attach. After 24 h, the inhibitors and the reference compounds diluted in fresh culture media were added to the wells and replaced every 2 days for 7 days of treatment.

[5] = test system: T-47D cells; experiment: T-47D cell proliferation (estrogenicity / cytotoxicity), MTS; format: cell-based
[6] = test system: alkaline phosphatase (ALP) activity in Saos-2 cells; experiment: Alkaline phosphatase (ALP) activity in Saos-2 cells; format: cell-based
Procedure: ALP is an enzyme that releases inorganic phosphate from different intracellular substrates such as pyrophosphate and pyridoxal 5′-phosphate.^63 The inorganic phosphate is used in the formation of hydroxyapatite crystals which are then inserted in the extracellular protein scaffold to form the solid part of bone tissue.
Saos-2 cells were treated similarly as reported in the cell proliferation assay. The cells were seeded at a density of 2 000 cells/well and were treated with the inhibitors and the reference compounds for 3 days. The alkaline phosphatase (ALP) activity was measured using Sensolyte® pNPP Alkaline Phosphatase Assay Kit *Colorimetric* (AnaSpec, Fremont, Calif.) following the manufacturer's protocol. Briefly, after the 3 days of treatment, the cells were washed twice with washing buffer (provided with the kit) and lysed with 0.2% Triton X-100. The cell lysates were centrifuged and the supernatants were used to determine the ALP activity. The supernatants were deposed in a 96-well plate and incubated 30 min with a p-nitrophenyl phosphate solution (provided with the kit). The absorbance at 405 nm was measured with a Thermo max microplate reader (Molecular Devices, Sunnyvale, Calif.). The control (culture media+DMSO) is set to 100% of alkaline phosphatase activity.

[7] = test system: alkaline phosphatase activity in Saos-2 cells; experiment: Alkaline phosphatase assay (Saos-2 cells), phenol library; format: cell-based; details: 1 nM; control (no treatment) fixed at 100%
Procedure: We also investigated the effect of selected phenol derivatives on alkaline phosphatase activity in Saos-2 cells (FIG. 13B).
Saos-2 cells were used similarly as reported in the cell proliferation assay. The cells were seeded at a density of 2 000 cells/well and treated for 3 days with each compound to be tested. The alkaline phosphatase (ALP) activity was measured using the Sensolyte® pNPP Alkaline Phosphatase Assay Kit *Colorimetric* (AnaSpec, Freemont, Calif.) following the manufacturer's protocol. Briefly, after three days of treatment, the cells were washed twice with washing buffer (provided with the kit) and lysed with 0.2% Triton X-100. The cell lysates were centrifuged and the supernatants were used to determine ALP activity. The supernatants were deposed in a 96-well plate and incubated for 30 minutes with a p-nitrophenyl phosphate solution (provided with the kit). The absorbance at 405 nm was measured with a Thermo max microplate reader (Molecular Devices, Sunnyvale, Calif.). The control (culture media+DMSO) is set to 100% of alkaline phosphatase activity.

[8] = test system: uterus weight of ovariectomized mice (OVX); details: cited from earlier work
[9] = test system: AR+ tissues (prostate and seminal vesicles); details: cited from earlier work
[10] = 1 μM, in % of control (100%; 0.1 nM of estradiol)

| IC50 [2] | SMILES | block of E2 stimulation of T-47D proliferation ([1]; 0.01 μM to 1 μM, E2 0.1 nM) | Breast cancer cells T-47D (ER+) Antagonist activity (%) [1, 10] | cytotoxicity on T-47D cells in presence of E2 ([1]; 5 μM, E2 0.1 nM) | proliferation of Saos-2 cells [3] | Saos-2 cell proliferation, dose response ([4]; 1 nM to 1 μM, 7 days) | Bone cells Saos-2 (ER+) SERM effect Proliferative activity (%) ([4]; 0.1 μM) | Bone cells Saos-2 (ER+) SERM effect Proliferative activity (%) ([4]; 1 μM) | estrogenic activity on T-47D cells ([5]; 0.01 μM to 5 μM, 7 days) | Breast cancer cells T-47D (ER+) Agonist activity (%) [5, 10] | cytotoxicity on T-47D cells ([5]; 5 μM) | Bone cells Saos-2 (ER+) SERM effect Alkaline phosphatase activity (%) ([6]; 0.1 nM) | stimulation of ALP activity in presence of ICI-164,384 or MPP + PHTPP ([6]; 0.1 nM compound, antagonists 1 μM, 3 days) | ALP activity in Saos-2 cells [7] | estrogenic activity: uterus weight of OVX mice ([8]; compound alone) | stimulation of uterine weight induced by E1S in OVX mice ([8]; with E1S) | androgenic effect in the absence of DHEAS ([9]; injected in the absence of DHEAS) | effect of DHEAS on the weight of AR+ tissues (prostate and seminal vesicles) ([9]; with DHEAS) |
| --- | --- | --- | --- | --- | --- | --- | --- | --- | --- | --- | --- | --- | --- | --- | --- | --- | --- | --- |
| > 1 µM | Cl.O=C(c1ccc(OCCN2CCCCC2)cc1)c1c(-c2ccc(O)cc2)sc2cc(O)ccc12 [raloxifene, Raloxifene hydrochloride, reference compound] | able to block the E2 stimulation | 96% | some cytotoxicity | 123% | apparent dose-dependent response | 75% | 83% | no estrogenic activity | 0% | induced some cytotoxicity | 86% | completely blocked the stimulation |  |  |  |  |  |
|  | CCN(Cc1ccc(C(=O)N2CCc3ccc(O)cc3C2)cc1)Cc1ccccn1 [3′-EO-14] |  |  |  | 140% |  |  |  |  |  |  |  |  | 147% |  |  |  |  |
|  | COc1cc2c(cc1OS(N)(=O)=O)CC[C@@H]1[C@@H]2CC[C@@]2(C)[C@H]1CC[C@@]2(O)Cc1ccccc1 [EM-1913, 3-O-sulfamate 17α-benzyl-2-methoxy-estra-1,3,5(10)-trien-17β-ol] |  |  |  |  |  |  |  |  |  |  |  |  |  | did not stimulate the uterus weight | effectively blocked | No more harmful androgenic effect was detected | block the effect of DHEAS |
